Results: patent US9617256B2 (priority 2007, dated 2017)
Converted amounts (≈) assume the structure as drawn.

Legend:
AECO001 (ATCC25922) = test: MIC broth microdilution, AECO001; format: cell-based, E. coli; settings: Escherichia coli, ATCC25922, read-out: MIC AECO001
Outline: (§1)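 Minimum inhibitory concentrations followed CLSI broth microdilution guidelines: cation-adjusted Mueller-Hinton broth, 2-fold serial drug dilutions, final inoculum 3×10^5–7×10^5 CFU/mL, ambient air at 35° C. for 18-24 hours. Quality-control strains and levofloxacin monitored performance.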

[1] = system: AECO063 (ATCC25922 bearing an acrAB mutation); test: microbe, parasite or virus in culture; format: cell-based, E. coli; settings: Escherichia coli, ATCC25922, read-out: MIC AECO063
Outline: as §1

APAE001 (ATCC27853) = test: MIC broth microdilution, APAE001; format: cell-based, P. aeruginosa; settings: Pseudomonas aeruginosa, ATCC27853, read-out: MIC APAE001, APAE001 is ATCC27853
Outline: as §1

[2] = system: APAE006 (strain of P. aeruginosa in which all efflux pumps are inactivated); test: microbe, parasite or virus in culture; format: cell-based; settings: Pseudomonas aeruginosa, read-out: MIC APAE006, P. aeruginosa, all efflux pumps inactivated
Outline: (§2)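 (ambient air) in cation-adjusted MHB; inoculum from 0.5 McFarland suspensions, final 3×10^5–7×10^5 CFU/mL; 2-fold serial drug dilutions per CLSI. APAE006: P. aeruginosa with all efflux pumps inactivated.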

[3] = system: APAE006 in the presence of 8 micrograms per milliliter of polymyxin B nonapeptide; format: cell-based, P. aeruginosa; settings: in the presence of 8 micrograms per milliliter of polymyxin B nonapeptide
Outline: as §2

[4] = system: AABA1060 (clinical isolate of Acinetobacter baumannii); test: MIC broth microdilution, AABA1060; format: cell-based; settings: Acinetobacter baumannii, read-out: MIC AABA1060
Outline: as §1

[5] = system: ASAU001 (laboratory strain of S. aureus, ATCC29213); test: MIC broth microdilution, ASAU001; format: cell-based; settings: Staphylococcus aureus, ATCC29213, read-out: MIC ASAU001
Outline: as §1

AECO001 HSA AGP = test: MIC broth microdilution, AECO001 HSA AGP; format: cell-based, E. coli; settings: Escherichia coli
Outline: as §1

SMILES | MIC (AECO001 (ATCC25922)) [µg/mL] | MIC [1] [µg/mL] | MIC (APAE001 (ATCC27853)) [µg/mL] | MIC [2] [µg/mL] | MIC APAE006 + PMBN [3] | MIC [4] [µg/mL] | MIC [5] [µg/mL] | MIC (AECO001 HSA AGP) [µg/mL]
C[C@@H](O)[C@H](NC(=O)c1ccc(C#C/C=C/c2ccc(CNC3CC3)cc2)cc1)C(=O)NO [Example 102-1, 4-[(E)-4-(4-Cyclopropylaminomethyl-phenyl)-but-3-en-1-ynyl]-N-((1S,2R)-2-hydroxy-1-hydroxycarbamoyl-propyl)-benzamide] | < 2 | < 2 | 2 to 16 (≈ 4.61 to 36.9 µM) | < 2 | A (MIC's of 2.0 μg/mL or less = A) | 16 to 64 (≈ 36.9 to 148 µM) | 16 to 64 (≈ 36.9 to 148 µM) | 2 to 16 (≈ 4.61 to 36.9 µM)
C[C@@H](N)[C@H](NC(=O)c1ccc(/C=C/C#Cc2ccc(Cl)cc2)cc1)C(=O)NO [Example 114-10] | < 2 | < 2 | 2 to 16 (≈ 5.03 to 40.2 µM) | < 2 | A (MIC's of 2.0 μg/mL or less = A) | 2 to 16 (≈ 5.03 to 40.2 µM) | 16 to 64 (≈ 40.2 to 161 µM) | 2 to 16 (≈ 5.03 to 40.2 µM)
CNC[C@H](NC(=O)c1ccc(C#C/C=C/c2ccc(CN3CCOCC3)cc2)cc1)C(=O)NO [Example 99-1] | < 2 | < 2 | 2 to 16 (≈ 4.32 to 34.6 µM) | < 2 | A (MIC's of 2.0 μg/mL or less = A) | 16 to 64 (≈ 34.6 to 138 µM) | 16 to 64 (≈ 34.6 to 138 µM) | 2 to 16 (≈ 4.32 to 34.6 µM)
C[C@@H](N)[C@H](NC(=O)c1ccc(/C=C/C#Cc2ccncc2)cc1)C(=O)NO [Example 114-8] | < 2 | < 2 | < 2 | < 2 | A (MIC's of 2.0 μg/mL or less = A) | 2 to 16 (≈ 5.49 to 43.9 µM) | 16 to 64 (≈ 43.9 to 176 µM) | 2 to 16 (≈ 5.49 to 43.9 µM)
CC(C)(N)C(NC(=O)c1ccc(C#Cc2ccc(CO)cc2)cc1)C(=O)NO (stereo not drawn) [Example 137-5] | < 2 | < 2 | < 2 | < 2 | A (MIC's of 2.0 μg/mL or less = A) | 2 to 16 (≈ 5.24 to 41.9 µM) | 16 to 64 (≈ 41.9 to 168 µM) | 2 to 16 (≈ 5.24 to 41.9 µM)
CO[C@H](C)[C@H](NC(=O)c1ccc(/C=C/C#Cc2ccc(CO)cc2)cc1)C(=O)NO [Example 112-4] | < 2 | < 2 | < 2 | < 2 | A (MIC's of 2.0 μg/mL or less = A) | < 2 | 16 to 64 (≈ 39.2 to 157 µM) | 2 to 16 (≈ 4.9 to 39.2 µM)
C[C@@H](N)[C@H](NC(=O)c1ccc(C#Cc2ccc(CCN)cc2)cc1)C(=O)NO [Example 137-4] | > 64 | 16 to 64 (≈ 42.1 to 168 µM) | > 64 | 16 to 64 (≈ 42.1 to 168 µM) | C (MIC's of greater than 16.0 μg/mL to 64.0 μg/mL = C) | > 64 | > 64 | > 64
C[C@@H](N)[C@H](NC(=O)c1ccc(C#C/C=C/c2ccc(CO)cc2)cc1)C(=O)NO [Example 101-3] | < 2 | < 2 | < 2 | < 2 | A (MIC's of 2.0 μg/mL or less = A) | 2 to 16 (≈ 5.08 to 40.7 µM) | 16 to 64 (≈ 40.7 to 163 µM) | 2 to 16 (≈ 5.08 to 40.7 µM)
C[C@@H](O)[C@H](NC(=O)c1ccc(C#CC#Cc2ccc(C(F)(F)F)cc2)cc1)C(=O)NO [Example 82-6] | < 2 | < 2 | 2 to 16 (≈ 4.65 to 37.2 µM) | 2 to 16 (≈ 4.65 to 37.2 µM) | A (MIC's of 2.0 μg/mL or less = A) | 16 to 64 (≈ 37.2 to 149 µM) | 16 to 64 (≈ 37.2 to 149 µM) | 2 to 16 (≈ 4.65 to 37.2 µM)
O=C(N[C@H](C(=O)NO)C1CCS(=O)(=O)CC1)c1ccc(/C=C/C#Cc2ccc(CN3CCOCC3)cc2)cc1 [Example 110-8] | < 2 | < 2 | 2 to 16 (≈ 3.63 to 29 µM) | < 2 | A (MIC's of 2.0 μg/mL or less = A) | 16 to 64 (≈ 29 to 116 µM) | > 64 | 16 to 64 (≈ 29 to 116 µM)
C[C@@H](N)[C@H](NC(=O)c1ccc(C#Cc2ccc(CNC3CCCC3)cc2)cc1)C(=O)NO [Example 118-6] | 2 to 16 (≈ 4.6 to 36.8 µM) | < 2 | < 2 | < 2 | A (MIC's of 2.0 μg/mL or less = A) | 16 to 64 (≈ 36.8 to 147 µM) | 16 to 64 (≈ 36.8 to 147 µM) | 2 to 16 (≈ 4.6 to 36.8 µM)
O=C(N[C@H](C(=O)NO)C1CCCC1)c1ccc(C#Cc2ccc(CN3CCOCC3)cc2)cc1 [Example 66-6] | < 2 | < 2 | 16 to 64 (≈ 34.7 to 139 µM) | < 2 | A (MIC's of 2.0 μg/mL or less = A) | 16 to 64 (≈ 34.7 to 139 µM) | > 64 | 2 to 16 (≈ 4.33 to 34.7 µM)
C[C@@H](O)[C@H](NC(=O)c1ccc(/C=C/C#Cc2ccc(CO)cc2)cc1)C(=O)NO [Example 112-3] | < 2 | < 2 | 2 to 16 (≈ 5.07 to 40.6 µM) | < 2 | A (MIC's of 2.0 μg/mL or less = A) | 16 to 64 (≈ 40.6 to 162 µM) | 16 to 64 (≈ 40.6 to 162 µM) | 16 to 64 (≈ 40.6 to 162 µM)
C[C@@H](N)[C@H](NC(=O)c1ccc(C#CC#Cc2ccccc2F)cc1)C(=O)NO [Example 82-7] | < 2 | < 2 | < 2 | < 2 | A (MIC's of 2.0 μg/mL or less = A) | < 2 | 2 to 16 (≈ 5.27 to 42.2 µM) | 2 to 16 (≈ 5.27 to 42.2 µM)
C[C@@H](N)[C@H](NC(=O)c1ccc(/C=C/C#Cc2ccccc2)cc1)C(=O)NO [Example 114-1, N-((1S,2R)-2-Amino-1-hydroxycarbamoyl-propyl)-4-((E)-4-phenyl-but-1-en-3-ynyl)-benzamide] | < 2 | < 2 | < 2 | < 2 | A (MIC's of 2.0 μg/mL or less = A) | < 2 | 2 to 16 (≈ 5.5 to 44 µM) | 2 to 16 (≈ 5.5 to 44 µM)
C[C@@H](O)[C@H](NC(=O)c1ccc(/C=C/C#Cc2ccc(CNC3CC3)cc2)cc1)C(=O)NO [Example 113-3] | < 2 | < 2 | 2 to 16 (≈ 4.61 to 36.9 µM) | < 2 | A (MIC's of 2.0 μg/mL or less = A) | 2 to 16 (≈ 4.61 to 36.9 µM) | > 64 | 2 to 16 (≈ 4.61 to 36.9 µM)
CC(C)[C@H](NC(=O)c1ccc(/C=C/C#Cc2ccc(CN3CCOCC3)cc2)cc1)C(=O)NO [Example 110-2] | < 2 | < 2 | 2 to 16 (≈ 4.33 to 34.7 µM) | < 2 | A (MIC's of 2.0 μg/mL or less = A) | 2 to 16 (≈ 4.33 to 34.7 µM) | > 64 | 2 to 16 (≈ 4.33 to 34.7 µM)
C[C@@H](N)[C@H](NC(=O)c1ccc(C#Cc2ccc(CN)cc2)cc1)C(=O)NO [Example 131-1, N-((1S,2R)-2-Amino-1-hydroxycarbamoyl-propyl)-4-(4-aminomethyl-phenylethynyl)-benzamide] | 16 to 64 (≈ 43.7 to 175 µM) | 16 to 64 (≈ 43.7 to 175 µM) | 2 to 16 (≈ 5.46 to 43.7 µM) | < 2 | A (MIC's of 2.0 μg/mL or less = A) | > 64 | > 64 | > 64
C[C@@H](N)[C@H](NC(=O)c1ccc(C#CC#Cc2cccnc2)cc1)C(=O)NO [Example 88-3] | < 2 | < 2 | < 2 | < 2 | A (MIC's of 2.0 μg/mL or less = A) | 2 to 16 (≈ 5.52 to 44.2 µM) | > 64 | 2 to 16 (≈ 5.52 to 44.2 µM)
NC[C@H](NC(=O)c1ccc(C#C/C=C/c2ccc(CNC3CC3)cc2)cc1)C(=O)NO [Example 102-3] | < 2 | < 2 | < 2 | < 2 | A (MIC's of 2.0 μg/mL or less = A) | 16 to 64 (≈ 38.2 to 153 µM) | 16 to 64 (≈ 38.2 to 153 µM) | 2 to 16 (≈ 4.78 to 38.2 µM)
C[C@@H](N)[C@H](NC(=O)c1ccc(C#Cc2ccc(CNCc3nccn3C)cc2)cc1)C(=O)NO [Example 119-3] | 2 to 16 (≈ 4.34 to 34.7 µM) | < 2 | 2 to 16 (≈ 4.34 to 34.7 µM) | < 2 | A (MIC's of 2.0 μg/mL or less = A) | 16 to 64 (≈ 34.7 to 139 µM) | > 64 | 2 to 16 (≈ 4.34 to 34.7 µM)
C[C@@H](O)[C@H](NC(=O)c1ccc(C#CC#Cc2ccc(CO)cc2)cc1)C(=O)NO [Example 82-14] | < 2 | < 2 | < 2 | < 2 | A (MIC's of 2.0 μg/mL or less = A) | < 2 | 16 to 64 (≈ 40.8 to 163 µM) | 16 to 64 (≈ 40.8 to 163 µM)
C[C@@H](O)[C@H](NC(=O)c1ccc(C#CC#Cc2cncn2C)cc1)C(=O)NO [Example 88-9] | < 2 | < 2 | 2 to 16 (≈ 5.46 to 43.7 µM) | < 2 | A (MIC's of 2.0 μg/mL or less = A) | 16 to 64 (≈ 43.7 to 175 µM) | 16 to 64 (≈ 43.7 to 175 µM) | 2 to 16 (≈ 5.46 to 43.7 µM)
C[C@@H](N)[C@H](NC(=O)c1ccc(/C=C/C#Cc2ccc(F)cc2)cc1)C(=O)NO [Example 114-2] | < 2 | < 2 | 2 to 16 (≈ 5.24 to 41.9 µM) | < 2 | A (MIC's of 2.0 μg/mL or less = A) | 2 to 16 (≈ 5.24 to 41.9 µM) | 16 to 64 (≈ 41.9 to 168 µM) | 2 to 16 (≈ 5.24 to 41.9 µM)
